Measurements as given in patent publication US20250154152A1, “INHIBITORS OF NAEGLERIA FOWLERI” (Wisconsin Alumni Research Foundation, priority 2023, published 2025).

What follows are molecules tested on N. fowleri strain Nf69 (ATCC 30215) trophozoites (assay: Determination of EC50 values against Naegleria fowleri (growth inhibition, CellTiter Glo, 48 h)). Conditions: ATCC30215, 48 h, read-out: EC50 uM against N. fowleri.
Type: cell-based
How it was run: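 Axenic Nf69 trophozoites in Nelson's complete medium with 10% FBS exposed to compound, initially 20–0.375 μM, for 48 h at 37 °C, 5% CO2. Viability read by CellTiter-Glo luminescence; % growth inhibition versus controls, triplicate averages fitted for EC50, with lower ranges used for very potent compounds.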
CC(C)OCCN1CCC[C@@H]2c3nc4cc(Cl)c(Cl)cc4c(=O)n3CC[C@H]21 (racemic) [trans-7z, (±)-(4aR,13bS)-10,11-dichloro-4-(2-isopropoxyethyl)-1,2,3,4,4a,5,6,13b-octahydro-8H-[1,6]naphthyridino[5,6-b]quinazolin-8-one] was tested, and the EC50 was 0.0001 to 0.1 µM.

Same assay, conditions: ATCC30215, N. fowleri Nf69 trophozoites, 48 h culture, 37° C., CellTiter Glo luminescence, read-out: EC50 uM against N. fowleri
COc1cc2nc3n(c(=O)c2cc1Cl)CC[C@@H]1[C@@H]3CCCN1CCN1CCOCC1 (racemic) [trans-7mm, (±)-(4aR,13bS)-10-chloro-11-methoxy-4-(2-morpholinoethyl)-1,2,3,4,4a,5,6,13b-octahydro-8H-[1,6]naphthyridino[5,6-b]quinazolin-8-one] showed an EC50 of 0.1 to 1 µM.
Work on COc1cc(CN2CCC[C@@H]3c4nc5cc(Cl)c(Cl)cc5c(=O)n4CC[C@H]32)cc(OC)c1 (racemic) [trans-7n, (±)-(4aR,13bS)-10,11-dichloro-4-(3,5-dimethoxybenzyl)-1,2,3,4,4a,5,6,13b-octahydro-8H-[1,6]naphthyridino[5,6-b]quinazolin-8-one] yielded an EC50 of 0.0001 to 0.1 µM.
In the case of COc1cc2nc3n(c(=O)c2cc1Cl)CC[C@@H]1[C@@H]3CCCN1CCN1CCCC1 (racemic) [trans-7nn, (±)-(4aR,13bS)-10-chloro-11-methoxy-4-(2-(pyrrolidin-1-yl)ethyl)-1,2,3,4,4a,5,6,13b-octahydro-8H-[1,6]naphthyridino[5,6-b]quinazolin-8-one], the EC50 is reported as 0.1 to 1 µM.
In the case of O=c1c2cc(Cl)c(Cl)cc2nc2n1CC[C@@H]1[C@@H]2CCCN1Cc1ccccn1 (racemic) [trans-7o, (±)-(4aR,13bS)-10,11-dichloro-4-(pyridin-2-ylmethyl)-1,2,3,4,4a,5,6,13b-octahydro-8H-[1,6]naphthyridino[5,6-b]quinazolin-8-one], the EC50 is reported as 1 to 10 µM.
For CN(C)CCN1CCC[C@@H]2c3nc4cc(Cl)c(Cl)cc4c(=O)n3CC[C@H]21 (racemic) [trans-7oo, (±)-(4aR,13bS)-10,11-dichloro-4-(2-(dimethylamino)ethyl)-1,2,3,4,4a,5,6,13b-octahydro-8H-[1,6]naphthyridino[5,6-b]quinazolin-8-one], the EC50 was 0.1 to 1 µM.
In the case of Cc1cccc(CN2CCC[C@@H]3c4nc5cc(Cl)c(Cl)cc5c(=O)n4CC[C@H]32)n1 (racemic) [trans-7p, (±)-(4aR,13bS)-10,11-dichloro-4-((6-methylpyridin-2-yl)methyl)-1,2,3,4,4a,5,6,13b-octahydro-8H-[1,6]naphthyridino[5,6-b]quinazolin-8-one], the EC50 is reported as 0.1 to 1 µM.
O=c1c2cc(Cl)c(Cl)cc2nc2n1CC[C@@H]1[C@@H]2CCCN1CC1CC1 (racemic) [trans-7q, (±)-(4aR,13bS)-10,11-dichloro-4-(cyclopropylmethyl)-1,2,3,4,4a,5,6,13b-octahydro-8H-[1,6]naphthyridino[5,6-b]quinazolin-8-one] gave an EC50 of 0.0001 to 0.1 µM.
For N#Cc1ccc(CN2CCC[C@@H]3c4nc5cc(Cl)c(Cl)cc5c(=O)n4CC[C@H]32)cc1 (racemic) [trans-7r, (±)-(4-(((4aR,13bS)-10,11-dichloro-8-oxo-2,3,5,6,8,13b-hexahydro-1H-[1,6]naphthyridino[5,6-b]quinazolin-4(4aH)-yl)methyl)benzonitrile], the EC50 was > 10 µM.
In the case of CC(C)(C)c1ccc(CN2CCC[C@@H]3c4nc5cc(Cl)c(Cl)cc5c(=O)n4CC[C@H]32)cc1 (racemic) [trans-7s, (±)-(4aR,13bS)-4-(4-(tert-butyl)benzyl)-10,11-dichloro-1,2,3,4,4a,5,6,13b-octahydro-8H-[1,6]naphthyridino[5,6-b]quinazolin-8-one], the EC50 is reported as > 10 µM.
O=c1c2cc(Cl)c(Cl)cc2nc2n1CC[C@@H]1[C@@H]2CCCN1Cc1ccccc1 (racemic) [trans-7w, (±)-(4aR,13bS)-4-benzyl-10,11-dichloro-1,2,3,4,4a,5,6,13b-octahydro-8H-[1,6]naphthyridino[5,6-b]quinazolin-8-one] showed an EC50 of 0.1 to 1 µM.
O=c1c2cc(Cl)c(Cl)cc2nc2n1CC[C@@H]1[C@@H]2CCCN1Cc1cnccn1 (racemic) [trans-7x, (±)-(4aR,13bS)-10,11-dichloro-4-(pyrazin-2-ylmethyl)-1,2,3,4,4a,5,6,13b-octahydro-8H-[1,6]naphthyridino[5,6-b]quinazolin-8-one] gave an EC50 of 0.0001 to 0.1 µM.
In the case of O=c1c2cc(Cl)c(Cl)cc2nc2n1CC[C@@H]1[C@@H]2CCCN1CCN1CCOCC1 (racemic) [trans-7y, (±)-(4aR,13bS)-10,11-dichloro-4-(2-morpholinoethyl)-1,2,3,4,4a,5,6,13b-octahydro-8H-[1,6]naphthyridino[5,6-b]quinazolin-8-one], the EC50 is reported as 0.0001 to 0.1 µM.
In the case of Cc1ccc(-c2ccc3nc4n(c(=O)c3c2)CC[C@@H]2[C@@H]4CCCN2C)cn1 (racemic) [trans-9a, (±)-(4aR,13bS)-4-methyl-10-(6-methylpyridin-3-yl)-1,2,3,4,4a,5,6,13b-octahydro-8H-[1,6]naphthyridino[5,6-b]quinazolin-8-one], the EC50 is reported as > 10 µM.
In the case of CN1CCC[C@@H]2c3nc4cc(-c5ccccc5)c(Cl)cc4c(=O)n3CC[C@H]21 (racemic) [trans-9b, (±)-(4aR,13bS)-10-chloro-4-methyl-11-phenyl-1,2,3,4,4a,5,6,13b-octahydro-8H-[1,6]naphthyridino[5,6-b]quinazolin-8-one], the EC50 is reported as 1 to 10 µM.
COc1ccc2c(=O)n3c(nc2c1)[C@H]1CCCN(C)[C@@H]1CC3 (racemic) [trans-50, (±)-(4aR,13bS)-11-methoxy-4-methyl-1,2,3,4,4a,5,6,13b-octahydro-8H-[1,6]naphthyridino[5,6-b]quinazolin-8-one] showed an EC50 of 1 to 10 µM.
COc1cc2nc3n(c(=O)c2cc1Cl)CC[C@@H]1[C@@H]3CCCN1CC(C)C (single isomer, unassigned) [trans-10g-ent-1] gave an EC50 of 0.1 to 1 µM.
COc1cc2nc3n(c(=O)c2cc1Cl)CC[C@H]1[C@H]3CCCN1CC(C)C (single isomer, unassigned) [trans-10h-ent-2] showed an EC50 of 0.0001 to 0.1 µM.
Work on COc1cc2nc3n(c(=O)c2cc1Cl)CC[C@@H]1[C@@H]3CCCN1CC1COC1 (single isomer, unassigned) [trans-10i-ent-1] yielded an EC50 of 0.1 to 1 µM.
Work on COc1cc2nc3n(c(=O)c2cc1Cl)CC[C@H]1[C@H]3CCCN1CC1COC1 (single isomer, unassigned) [trans-10j-ent-2] yielded an EC50 of 0.0001 to 0.1 µM.
With Cn1c(C2CN(CC3COC3)C2)nc2cc(Cl)c(Cl)cc2c1=O [Compound 14i, 6,7-dichloro-3-methyl-2-(1-(oxetan-3-ylmethyl)azetidin-3-yl)quinazolin-4(3H)-one] the EC50 was > 10 µM.
Molecule CC(C)OCCN1CCC[C@@H](c2nc3cc(Cl)c(Cl)cc3c(=O)n2C)C1 [Compound R-14aa, (R)-6,7-dichloro-2-(1-(2-isopropoxyethyl)piperidin-3-yl)-3-methylquinazolin-4(3H)-one] has an EC50 of 1 to 10 µM.
For CC(C)N1CCC[C@@H](c2nc3cc(Cl)c(Cl)cc3c(=O)n2C)C1 [Compound R-14b, (R)-6,7-dichloro-2-(1-isopropylpiperidin-3-yl)-3-methylquinazolin-4(3H)-one], the EC50 was > 10 µM.
With Cn1c([C@@H]2CCCN(CCN3CCOCC3)C2)nc2cc(Cl)c(Cl)cc2c1=O [Compound R-14bb, (R)-6,7-dichloro-3-methyl-2-(1-(2-morpholinoethyl)piperidin-3-yl)quinazolin-4(3H)-one] the EC50 was 1 to 10 µM.
For Cn1c([C@@H]2CCCN(CC3CCOCC3)C2)nc2cc(Cl)c(Cl)cc2c1=O [Compound R-14d, (R)-6,7-dichloro-3-methyl-2-(1-((tetrahydro-2H-pyran-4-yl)methyl)piperidin-3-yl)quinazolin-4(3H)-one], the EC50 was > 10 µM.
Cn1c([C@@H]2CCCN(CCN3CCCC3)C2)nc2cc(Cl)c(Cl)cc2c1=O [Compound R-14dd, (R)-6,7-dichloro-3-methyl-2-(1-(2-(pyrrolidin-1-yl)ethyl)piperidin-3-yl)quinazolin-4(3H)-one] was tested, and the EC50 was 0.1 to 1 µM.
Cn1c([C@@H]2CCCN(CC3COC3)C2)nc2cc(Cl)c(Cl)cc2c1=O [Compound R-14f, (R)-6,7-dichloro-3-methyl-2-(1-(oxetan-3-ylmethyl)piperidin-3-yl)quinazolin-4(3H)-one] gave an EC50 of 0.1 to 1 µM.
With CC(C)CN1CCC[C@@H](c2nc3cc(Cl)c(Cl)cc3c(=O)n2C)C1 [Compound R-14g, (R)-6,7-dichloro-2-(1-isobutylpiperidin-3-yl)-3-methylquinazolin-4(3H)-one] the EC50 was > 10 µM.
For Cn1c([C@@H]2CCCN(CC(C)(C)O)C2)nc2cc(Cl)c(Cl)cc2c1=O [Compound R-14h, (R)-6,7-dichloro-2-(1-(2-hydroxy-2-methylpropyl)piperidin-3-yl)-3-methylquinazolin-4(3H)-one], the EC50 was > 10 µM.
With Cn1c([C@@H]2CCN(CC3COC3)C2)nc2cc(Cl)c(Cl)cc2c1=O [Compound R-14j, (R)-6,7-dichloro-3-methyl-2-(1-(oxetan-3-ylmethyl)pyrrolidin-3-yl)quinazolin-4(3H)-one] the EC50 was 1 to 10 µM.
For COCCn1c([C@@H]2CCCN(CC3COC3)C2)nc2cc(Cl)c(Cl)cc2c1=O [Compound R-14k, (R)-6,7-dichloro-3-(2-methoxyethyl)-2-(1-(oxetan-3-ylmethyl)piperidin-3-yl)quinazolin-4(3H)-one], the EC50 was > 10 µM.
For CN(C)CCn1c([C@@H]2CCCN(CC3COC3)C2)nc2cc(Cl)c(Cl)cc2c1=O [Compound R-14l, (R)-6,7-dichloro-3-(2-(dimethylamino)ethyl)-2-(1-(oxetan-3-ylmethyl)piperidin-3-yl)quinazolin-4(3H)-one], the EC50 was > 10 µM.
In the case of O=c1c2cc(Cl)c(Cl)cc2nc([C@@H]2CCCN(CC3COC3)C2)n1CCN1CCOCC1 [Compound R-14m, (R)-6,7-dichloro-3-(2-morpholinoethyl)-2-(1-(oxetan-3-ylmethyl)piperidin-3-yl)quinazolin-4(3H)-one], the EC50 is reported as > 10 µM.
With Cn1c([C@@H]2CCCN(CC3COC3)C2)nc2cnc(Cl)cc2c1=O [Compound R-14n, (R)-6-chloro-3-methyl-2-(1-(oxetan-3-ylmethyl)piperidin-3-yl)pyrido[3,4-d]pyrimidin-4(3H)-one] the EC50 was > 10 µM.
